Patent US8455009B2, “Amniotic membrane preparations and purified compositions and anti-inflammation methods” (TissueTech, Inc., priority 2005, dated 2013)

Experiments:
Raw 264.7 cells = assay: Hoechst-33342 nuclear staining of macrophages; format: cell-based, mouse; conditions: 500 μM inhibitor; cells on AM with IFN γ
From the text: To determine if the aforementioned cell death was mediated by apoptosis, cells in parallel experiments were subjected to Hoechst-33342 staining. Fragmented nuclei with strong Hoechst staining were found more in AM/IFN γ as compared to AM without IFN γ and to their plastic controls. Percentages of Hoechst-33342-positive apoptotic nuclei were 12.4±2.7% (PL), 16.5±3.1% (PL/IFN γ), 14.7±1.1% (AM), and 63.8±7.9% (AM/IFN γ). There was no statistical difference between PL and PL/IFN γ and between PL and AM (all p>0.05), while there was a statistical difference between AM and AM/IFN γ and between PL/IFNγ and AM/IFNγ (all p<0.001). […] In contrast, there was no such giant cell in AM/IFNγ cultures.

Raw264.7 cells = assay: NO assay (nitrite, Griess reagent) in Raw264.7 macrophages; format: cell-based, mouse; conditions: 500 μM inhibitor; cells cultured on AM
Protocol: Raw 264.7 cells, a mouse macrophage cell line, were obtained from the ATCC and cultured in phenol red-free Dulbecco's modified Eagle's medium (DMEM) supplemented with 10% fetal bovine serum, 50 μg/ml gentamicin, and 1.25 μg/ml fungizone in 100 mm culture dishes. When cells became 70%-80% confluent, the medium was removed and cells were treated with trypsin/EDTA for 10 min at 25° C. After digestion, cells were still firmly attached to the dish, so the trypsin/EDTA solution was removed. […] After centrifugation at 500×g for 5 min, the medium was removed, the cell pellet resuspended in the DMEM/ITS medium, cells counted, and cell density adjusted to 0.5×10^6/ml. […]
At the end of the cultivation, the cell culture medium in each well was harvested individually and centrifuged at 12,000×g for 10 min at 4° C. […] NO production was assessed by measuring the nitrite, its stable degradation product, using Griess reagent according to the manufacturer's protocol. Briefly, 50 μl of the cleared medium was mixed with 100 μl of the Griess reagents (ICN Biomedicals, Aurora, Ohio), after 15 min the absorbance was measured at 550 nm using Fusion™ universal microplate analyzer (Packard, Meriden, Conn.). The amount of nitrite was calculated from a standard curve of sodium nitrite (NaNO2; Sigma, St. Louis, Mo.).

[1] = test system: human corneal fibroblasts; assay: Cell morphology and density of human corneal fibroblasts after treatment; format: cell-based; conditions: HA alone; low concentrations of AME or jelly extracts
From the text: The above changes were even more dramatic in lyophilized AME or L/AME than their non-lyophilized counterparts in AME or Jelly extracts, respectively (FIG. 6).

TGF-β1 promoter = TGF-β1 promoter suppression (adenoviral promoter-luciferase) in human corneal fibroblasts; format: cell-based
Protocol: When human corneal fibroblasts cultured on 100 mm plastic dish in DMEM/10% FBS reached 80% confluency (˜1.0×10^6 cells), cells were washed twice with DMEM/10% FBS. Adenoviruses-TGF-β1 promoter-luciferase (MOI=37.5) and Adeno-CMV-beta-gal (MOI=30) were added to the culture plates with 10 ml of the fresh DMEM/10% FBS and cells were incubated at 37° C. for 4 hours, and trypsinized for 5 minutes using 4 ml prewarmed trypsin/EDTA. After trypsin/EDTA activity was neutralized with 8 ml of DMEM/10% FBS, cells were collected into a 15 ml tube and centrifuged at 1,500 rpm (˜600×g) for 5 min. After decanting the medium, cells were resuspended in 15 ml DMEM/10% FBS, and cell viability was measured by trypan blue stain. Viable 3×10^4 cells were seeded on a plastic 24 well or on the stromal surface of AM inserts. A total of 4 wells or inserts were prepared. Cells were then incubated at 37° C. in a CO2 incubator for 48 hours.
After carefully removing the growth medium from each well, cells were rinsed with 0.5 ml PBS at lease twice, taking care not to dislodge attached cells. After removing as much as PBS in the well, 100 μl 1× lysis buffer was added to cover the cells, and cells were mechanically scraped and transferred to a microcentrifuge tube placed on ice. Cell lysates were collected by vortexing for 10-15 sec and centrifuging at 12,000×g for 15 sec at room temperature. […]

| Molecule | extent of macrophage apoptosis with NO synthase inhibitor (Raw 264.7 cells) | IFN γ induced nitrite level with NO synthase inhibitor (Raw264.7 cells) [µM] | change in cell morphology [1] | suppressive activity on TGF-β1 promoter, HA alone (TGF-β1 promoter; 100 μg/ml) | suppression of TGF-β1 promoter activation (TGF-β1 promoter; compared to the PBS control, normalized with beta-galatosidase activity, FIG. 5) |
| --- | --- | --- | --- | --- | --- |
| CC(=N)NCCCC[C@H](N)C(=O)O.Cl [L-NIL, L-N-6-(1-iminoethyl) lysine hydrochloride] | not significantly attenuated | 14.0 ± 9.8 |  |  |  |
| CC(=O)O.CNC(=N)NCCC[C@H](N)C(=O)O [L-NMMA, NG-monomethyl-L-arginine acetate] | not significantly attenuated | 19.8 ± 4.9 |  |  |  |
| hyaluronic acid [HA] |  |  | no change in cell morphology | mild suppressive activity | showed suppression |
